How the values were obtained:
[1] = Volume of distribution at steady state in Sprague-Dawley rat at 5 mg/kg, iv administered for 30 mins; assay type: ADME, organism-based; set-up: dose 5 mg/kg, dosed compound name [14C]LY2090314, route intravenous; conditions: in vivo, read-out: Vdss
Plasma [2] = assay: Plasma concentration in beagle dog at Tmax; assay type: ADME, cell-free, Canis lupus familiaris; set-up: dosed compound name [14C]LY2090314
[3] = Tmax in cancer patient at 60 mg for 60 mins treated 1/1 cycle/day; assay type: ADME, organism-based; set-up: dosed compound name LY2090314; conditions: human, in vivo
[4] = Volume of distribution at steady state in cancer patient at 40 mg for 60 mins treated 1/1 cycle/day; assay type: ADME, organism-based; set-up: dosed compound name LY2090314; conditions: human, in vivo, read-out: Vdss
[5] = Volume of distribution at steady state in beagle dog at 5 mg/kg, iv administered for 30 mins; assay type: ADME, organism-based, Canis lupus familiaris; set-up: dose 5 mg/kg, dosed compound name [14C]LY2090314, route intravenous; conditions: in vivo, read-out: Vdss
Plasma [6] = assay: Plasma concentration in Sprague-Dawley rat at 5 mg/kg, iv administered for 30 mins; assay type: ADME, organism-based; set-up: dose 5 mg/kg, dosed compound name [14C]LY2090314, route intravenous; conditions: in vivo, 0.5 h
[7] = Drug recovery in bile duct-cannulated Sprague-Dawley rat assessed as radioactivity in bile during 0 to 24 hrs at 5 mg/kg, iv administered for 30 mins relative to dosed radioactivity; assay type: ADME, organism-based; set-up: dose 5 mg/kg, dosed compound name [14C]LY2090314, route intravenous; conditions: in vivo
[8] = Cmax in cancer patient at 20 mg for 60 mins treated 2/1 cycle/day; assay type: ADME, organism-based; set-up: dose 20 mg, dosed compound name LY2090314; conditions: human, in vivo
[9] = Tmax in cancer patient at 40 mg for 60 mins treated 1/1 cycle/day; assay type: ADME, organism-based; set-up: dosed compound name LY2090314; conditions: human, in vivo
Rattus norvegicus = assay: Total drug recovery in Sprague-Dawley rat at 5 mg/kg, iv administered for 30 mins during 0 to 168 hrs time interval by radio analysis; assay type: ADME, organism-based; set-up: dose 5 mg/kg, dosed compound name [14C]LY2090314, route intravenous; conditions: in vivo
[10] = Volume of distribution at steady state in cancer patient at 60 mg for 60 mins treated 1/1 cycle/day; assay type: ADME, organism-based; set-up: dosed compound name LY2090314; conditions: human, in vivo, read-out: Vdss
[11] = Cmax in cancer patient at 80 mg for 60 mins treated 1/8 cycle/day; assay type: ADME, organism-based; set-up: dose 80 mg, dosed compound name LY2090314; conditions: human, in vivo
[12] = AUC (0 to infinity) in cancer patient at 80 mg for 60 mins treated 1/8 cycle/day; assay type: ADME, organism-based; set-up: dose 80 mg, time infinity, dosed compound name LY2090314; conditions: human, plasma
[13] = AUC (0 to infinity) in cancer patient at 120 mg for 60 mins treated 1/1 cycle/day; assay type: ADME, organism-based; set-up: dose 120 mg, time infinity, dosed compound name LY2090314; conditions: human, plasma
[14] = Tmax in cancer patient at 60 mg for 60 mins treated 1/8 cycle/day; assay type: ADME, organism-based; set-up: dosed compound name LY2090314; conditions: human, in vivo
Plasma [15] = assay: Drug recovery in beagle dog plasma assessed as radiochemical peak area at 5 mg/kg, iv administered for 30 mins after 2 hrs by radio analysis; assay type: ADME, organism-based, Canis lupus familiaris; set-up: dose 5 mg/kg, dosed compound name [14C]LY2090314, route intravenous; conditions: in vivo
[16] = Drug recovery in Sprague-Dawley rat urine at 5 mg/kg, iv administered for 30 mins during 0 to 24 hrs time interval by radio analysis; assay type: ADME, organism-based; set-up: dose 5 mg/kg, dosed compound name [14C]LY2090314, route intravenous; conditions: in vivo
[17] = Cmax in cancer patient at 40 mg for 60 mins treated 1/8 cycle/day; assay type: ADME, organism-based; set-up: dose 40 mg, dosed compound name LY2090314; conditions: human, in vivo
[18] = Cmax in cancer patient at 10 mg for 60 mins treated 2/1 cycle/day; assay type: ADME, organism-based; set-up: dose 10 mg, dosed compound name LY2090314; conditions: human, in vivo
Canis familiaris = assay: Elimination half life in beagle dog assessed as total radioactivity at 5 mg/kg, iv administered for 30 mins; assay type: ADME, organism-based, Canis lupus familiaris; set-up: dose 5 mg/kg, dosed compound name [14C]LY2090314, route intravenous; conditions: in vivo, 0.5 h
[19] = Volume of distribution at steady state in cancer patient at 40 mg for 60 mins treated 1/8 cycle/day; assay type: ADME, organism-based; set-up: dosed compound name LY2090314; conditions: human, in vivo, read-out: Vdss
[20] = Drug recovery in bile duct-intact beagle dog assessed as radioactivity in feces during 0 to 48 hrs at 5 mg/kg, iv administered for 30 mins; assay type: ADME, organism-based, Canis lupus familiaris; set-up: dose 5 mg/kg, dosed compound name [14C]LY2090314, route intravenous; conditions: in vivo
[21] = AUC (0 to infinity) in cancer patient at 10 mg for 60 mins treated 1/1 cycle/day; assay type: ADME, organism-based; set-up: dose 10 mg, time infinity, dosed compound name LY2090314; conditions: human, plasma
[22] = Half life in cancer patient at 80 mg for 60 mins treated 1/8 cycle/day; assay type: ADME, organism-based; set-up: dosed compound name LY2090314; conditions: human, in vivo
[23] = Elimination half life in Sprague-Dawley rat at 5 mg/kg, iv administered for 30 mins; assay type: ADME, organism-based; set-up: dose 5 mg/kg, dosed compound name [14C]LY2090314, route intravenous; conditions: in vivo, read-out: beta t1/2 (converted)
[24] = Clearance in cancer patient at 20 mg for 60 mins treated 1/1 cycle/day; assay type: ADME, organism-based; set-up: dosed compound name LY2090314; conditions: human, in vivo
[25] = Drug recovery in bile duct-cannulated Sprague-Dawley rat bile at 5 mg/kg, iv administered for 30 mins during 0 to 168 hrs time interval by radio analysis; assay type: ADME, organism-based; set-up: dose 5 mg/kg, dosed compound name [14C]LY2090314, route intravenous; conditions: in vivo
[26] = Tmax in cancer patient at 80 mg for 60 mins treated 1/1 cycle/day; assay type: ADME, organism-based; set-up: dosed compound name LY2090314; conditions: human, in vivo

Structure (SMILES): O=C1NC(=O)C(c2cnc3ccccn23)=C1c1cn2c3c(cc(F)cc13)CN(C(=O)N1CCCCC1)CC2 [LY-2090314]
- Vd [1]: 1.19 L/kg
- Compound recovery (Plasma [2]): 82.8%
- Tmax [3]: 33 min
- Vd [4]: 79.3 L
- Vd [5]: 0.915 L/kg
- Compound recovery (Plasma [6]): 70.4%
- Radiolabel recovery [7]: 91.8%
- Cmax [8]: 271 ng/mL
- Tmax [9]: 58.8 min
- Radiolabel recovery (Rattus norvegicus): 97.7%
- Vd [10]: 76.8 L
- Cmax [11]: 1150 ng/mL
- AUC(0-inf) [12]: 1830 ng·h/mL
- AUC(0-inf) [13]: 3310 ng·h/mL
- Tmax [14]: 55.2 min
- Radiolabel recovery (Plasma [15]): 36.09%
- Radiolabel recovery [16]: 0.73%
- Cmax [17]: 657 ng/mL
- Cmax [18]: 106 ng/mL
- beta t1/2 (Canis familiaris): 73.6 h
- Vd [19]: 64.1 L
- Radiolabel recovery [20]: 4.1%
- AUC(0-inf) [21]: 216 ng·h/mL
- half-life [22]: 156 min
- half-life [23]: 21.5 min
- clearance [24]: 782 mL/min
- Radiolabel recovery [25]: 85.8%
- Tmax [26]: 60 min

Source: ChEMBL document CHEMBL3526091, “Pharmacokinetics, metabolism, and excretion of the glycogen synthase kinase-3 inhibitor LY2090314 in rats, dogs, and humans: a case study in rapid clearance by extensive metabolism with low circulating metabolite exposure” (Drug Metab Dispos, 2013)
